Consider nine compounds from US10206394B2, “Herbicidal compounds” (Syngenta Participations AG, priority 2014, dated 2019).

Where two headings read alike, the source gives them in different places.

Holding throughout (assay): Glasshouse assay for herbicidal activity (pre- and post-emergence), percentage phytotoxicity
Holding throughout (assay type): in vivo

The test system of experiment [1] is Lolium perenne (LOLPE). The note with it: Lolium perenne. An outline of the steps: (§1)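 Potted test plants in standard soil received the compound pre-emergence (day 1) or post-emergence (about day 12). Evaluation: visual damage score from 0% (none) to 100% (total), 15 days after application post-emergence, 20 days pre-emergence.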
In experiment [2] the test system is Alopecurus myosuroides (ALOMY). The note with it: Alopecurus myosuroides. The essentials: as §1
Experiment [3] has as its system Avena fatua (AVEFA). The note with it: Avena fatua. The essentials:
as §1

The subject of experiment [4] is Echinochloa crus-galli (ECHCG). The note with it: Echinochloa crus-galli. The essentials: as §1
Setting [5] is: post-emergence, 360 h, Rate 250 g/ha, post-emergence, assessed visually 15 DAA, 100%=total damage, 0%=no damage, read-out: Post-emergence herbicidal activity (percentage phytotoxicity) LOLPE POST.
Where [6] appears, read: pre-emergence, 480 h, Rate 250 g/ha, pre-emergence, assessed visually 20 DAA, 100%=total damage, 0%=no damage, read-out: Pre-emergence herbicidal activity (percentage phytotoxicity) LOLPE PRE.
[7] abbreviates: post-emergence, 360 h, Rate 250 g/ha, post-emergence, assessed visually 15 DAA, 100%=total damage, 0%=no damage, read-out: Post-emergence herbicidal activity (percentage phytotoxicity) ALOMY POST.
Setting [8] is: pre-emergence, 480 h, Rate 250 g/ha, pre-emergence, assessed visually 20 DAA, 100%=total damage, 0%=no damage, read-out: Pre-emergence herbicidal activity (percentage phytotoxicity) ALOMY PRE.
Where [9] appears, read: post-emergence, 360 h, Rate 250 g/ha, post-emergence, assessed visually 15 DAA, 100%=total damage, 0%=no damage, read-out: Post-emergence herbicidal activity (percentage phytotoxicity) AVEFA POST.
Where [10] appears, read: pre-emergence, 480 h, Rate 250 g/ha, pre-emergence, assessed visually 20 DAA, 100%=total damage, 0%=no damage, read-out: Pre-emergence herbicidal activity (percentage phytotoxicity) AVEFA PRE.
Setting [11] is: post-emergence, 360 h, Rate 250 g/ha, post-emergence, assessed visually 15 DAA, 100%=total damage, 0%=no damage, read-out: Post-emergence herbicidal activity (percentage phytotoxicity) ECHCG POST.
The mark [12] stands for this setting: pre-emergence, 480 h, Rate 250 g/ha, pre-emergence, assessed visually 20 DAA, 100%=total damage, 0%=no damage, read-out: Pre-emergence herbicidal activity (percentage phytotoxicity) ECHCG PRE.
[13] abbreviates: post-emergence, 360 h, 250 g/ha, post-emergence, 15 DAA, visual assessment (100%=total damage, 0%=no damage), read-out: Post-emergence herbicidal activity (percentage phytotoxicity) LOLPE POST.
Where [14] appears, read: pre-emergence, 480 h, 250 g/ha, pre-emergence, 20 DAA, visual assessment (100%=total damage, 0%=no damage), read-out: Pre-emergence herbicidal activity (percentage phytotoxicity) LOLPE PRE.
Setting [15] is: post-emergence, 360 h, 250 g/ha, post-emergence, 15 DAA, visual assessment (100%=total damage, 0%=no damage), read-out: Post-emergence herbicidal activity (percentage phytotoxicity) ALOMY POST.
The mark [16] stands for this setting: pre-emergence, 480 h, 250 g/ha, pre-emergence, 20 DAA, visual assessment (100%=total damage, 0%=no damage), read-out: Pre-emergence herbicidal activity (percentage phytotoxicity) ALOMY PRE.
Where [17] appears, read: post-emergence, 360 h, 250 g/ha, post-emergence, 15 DAA, visual assessment (100%=total damage, 0%=no damage), read-out: Post-emergence herbicidal activity (percentage phytotoxicity) AVEFA POST.
[18] abbreviates: pre-emergence, 480 h, 250 g/ha, pre-emergence, 20 DAA, visual assessment (100%=total damage, 0%=no damage), read-out: Pre-emergence herbicidal activity (percentage phytotoxicity) AVEFA PRE.
The mark [19] stands for this setting: post-emergence, 360 h, 250 g/ha, post-emergence, 15 DAA, visual assessment (100%=total damage, 0%=no damage), read-out: Post-emergence herbicidal activity (percentage phytotoxicity) ECHCG POST.
Where [20] appears, read: pre-emergence, 480 h, 250 g/ha, pre-emergence, 20 DAA, visual assessment (100%=total damage, 0%=no damage), read-out: Pre-emergence herbicidal activity (percentage phytotoxicity) ECHCG PRE.
Where [21] appears, read: post-emergence, 360 h, Rate 250 g/ha, post-emergence, visual assessment 15 DAA, 100%=total damage, 0%=no damage, read-out: Post-emergence herbicidal activity (percentage phytotoxicity) LOLPE POST.
The mark [22] stands for this setting: pre-emergence, 480 h, Rate 250 g/ha, pre-emergence, visual assessment 20 DAA, 100%=total damage, 0%=no damage, read-out: Pre-emergence herbicidal activity (percentage phytotoxicity) LOLPE PRE.
Where [23] appears, read: post-emergence, 360 h, Rate 250 g/ha, post-emergence, visual assessment 15 DAA, 100%=total damage, 0%=no damage, read-out: Post-emergence herbicidal activity (percentage phytotoxicity) ALOMY POST.
Where [24] appears, read: pre-emergence, 480 h, Rate 250 g/ha, pre-emergence, visual assessment 20 DAA, 100%=total damage, 0%=no damage, read-out: Pre-emergence herbicidal activity (percentage phytotoxicity) ALOMY PRE.
Setting [25] is: post-emergence, 360 h, Rate 250 g/ha, post-emergence, visual assessment 15 DAA, 100%=total damage, 0%=no damage, read-out: Post-emergence herbicidal activity (percentage phytotoxicity) AVEFA POST.
Setting [26] is: pre-emergence, 480 h, Rate 250 g/ha, pre-emergence, visual assessment 20 DAA, 100%=total damage, 0%=no damage, read-out: Pre-emergence herbicidal activity (percentage phytotoxicity) AVEFA PRE.
Setting [27] is: post-emergence, 360 h, Rate 250 g/ha, post-emergence, visual assessment 15 DAA, 100%=total damage, 0%=no damage, read-out: Post-emergence herbicidal activity (percentage phytotoxicity) ECHCG POST.
Where [28] appears, read: pre-emergence, 480 h, Rate 250 g/ha, pre-emergence, visual assessment 20 DAA, 100%=total damage, 0%=no damage, read-out: Pre-emergence herbicidal activity (percentage phytotoxicity) ECHCG PRE.

For `Cc1cc(C)c(C2C(=O)CC(CC(=O)NCCC#N)C2=O)c(C)c1` (stereo not drawn) [Compound A86], the pest or weed control at 250 g/ha in experiment [1] (setting [5]) stood at 50%; in experiment [1] (setting [6]), 10%; in experiment [2] (setting [7]) it was 30%; in experiment [2] (setting [8]) it was 0%; in experiment [3] (setting [9]), 40%; in experiment [3] (setting [10]), 0%. In addition, the pest or weed control at 250 g/ha in experiment [4] (setting [11]) was 80%; in experiment [4] (setting [12]), 20%.

With `Cc1cc(-c2ncc(Cl)cc2F)cc(C)c1C1C(=O)CC(CC(=O)NCc2ccsc2Br)C1=O` (stereo not drawn) [Compound A127], the pest or weed control at 250 g/ha in experiment [1] (setting [5]) turned out to be 90%; in experiment [1] (setting [6]), 60%; in experiment [2] (setting [7]), 70%; in experiment [2] (setting [8]) it was 0%; in experiment [3] (setting [9]), 70%; in experiment [3] (setting [10]), 20%. Further, the pest or weed control at 250 g/ha in experiment [4] (setting [11]) came out at 100%; in experiment [4] (setting [12]) it was 60%.

Regarding `Cc1cc(C)c(C2C(=O)CC(CC(=O)NC(C)CC3CCCC3)C2=O)c(C)c1` (stereo not drawn) [Compound B28], the pest or weed control at 250 g/ha in experiment [1] (setting [13]) was found to be 50%; in experiment [1] (setting [14]), 80%; in experiment [2] (setting [15]), 50%; in experiment [2] (setting [16]), 50%; in experiment [3] (setting [17]) it was 60%; in experiment [3] (setting [18]), 50%. The pest or weed control at 250 g/ha in experiment [4] (setting [19]) came to 70%; in experiment [4] (setting [20]), 60%.

Turning to `COc1ccc(CNC(=O)CC2CC(=O)C(c3c(C)cc(-c4ccc(Cl)cn4)cc3C)C2=O)cc1` (stereo not drawn) [Compound B380], the pest or weed control at 250 g/ha in experiment [1] (setting [21]) is 90%; in experiment [1] (setting [22]), 80%; in experiment [2] (setting [23]) it was 70%; in experiment [2] (setting [24]), 70%; in experiment [3] (setting [25]), 90%; in experiment [3] (setting [26]) it was 80%. In addition, the pest or weed control at 250 g/ha came out at 100% in experiment [4] (setting [27]) and 90% in experiment [4] (setting [28]).

For the compound `Cc1cc(C)c(C2C(=O)CC(CC(=O)NCc3cccc(F)c3)C2=O)c(C)c1` (stereo not drawn) [Compound B21], the pest or weed control at 250 g/ha amounted to 90% in experiment [1] (setting [13]); 100% in experiment [1] (setting [14]); 80% in experiment [2] (setting [15]); 80% in experiment [2] (setting [16]); 90% in experiment [3] (setting [17]); 50% in experiment [3] (setting [18]). For the same compound, the pest or weed control at 250 g/ha was determined as 90% in experiment [4] (setting [19]) and 100% in experiment [4] (setting [20]).

As to `Cc1cc(C)c(C2C(=O)CC(CC(=O)NCc3ccccc3C)C2=O)c(C)c1` (stereo not drawn) [Compound B12], the pest or weed control at 250 g/ha in experiment [1] (setting [13]) is 90%; in experiment [1] (setting [14]), 90%; in experiment [2] (setting [15]), 60%; in experiment [2] (setting [16]) it was 70%; in experiment [3] (setting [17]) it was 60%; in experiment [3] (setting [18]), 30%. For the same compound, the results for the pest or weed control at 250 g/ha in experiment [4] (setting [19]) and in experiment [4] (setting [20]) were 90% and 100%, respectively.

As to `C=CC(C)NC(=O)CC1CC(=O)C(c2c(C)cc(-c3ncc(Cl)cn3)cc2C)C1=O` (stereo not drawn) [Compound B345], the pest or weed control at 250 g/ha in experiment [1] (setting [21]) stood at 100%; in experiment [1] (setting [22]) it was 100%; in experiment [2] (setting [23]), 100%; in experiment [2] (setting [24]), 100%; in experiment [3] (setting [25]), 100%; in experiment [3] (setting [26]), 90%. The pest or weed control at 250 g/ha in experiment [4] (setting [27]) and in experiment [4] (setting [28]) was 100% in each case.

Regarding `Cc1cc(-c2ccc(Cl)cc2)cc(C)c1C1C(=O)CC(CC(=O)NC(C)(C)C#N)C1=O` (stereo not drawn) [Compound B378], the pest or weed control at 250 g/ha in experiment [1] (setting [21]) was 70%; in experiment [1] (setting [22]), 80%; in experiment [2] (setting [23]), 80%; in experiment [2] (setting [24]), 70%; in experiment [3] (setting [25]), 100%; in experiment [3] (setting [26]), 90%. In addition, the pest or weed control at 250 g/ha in experiment [4] (setting [27]) was 100%; in experiment [4] (setting [28]) it was 90%.

For the compound `CNC(=O)CC1CC(=O)C(c2c(C)cc(-c3ncc(F)cn3)cc2C)C1=O` (stereo not drawn) [Compound B280], the pest or weed control at 250 g/ha in experiment [1] (post-emergence, 360 h, POST-emergence, rate 250 g/ha, visual score 15 DAA (100%=total damage, 0%=no damage), read-out: Post-emergence herbicidal activity (percentage phytotoxicity) LOLPE POST) was 100%; in experiment [1] (pre-emergence, 480 h, PRE-emergence, rate 250 g/ha, visual score 20 DAA (100%=total damage, 0%=no damage), read-out: Pre-emergence herbicidal activity (percentage phytotoxicity) LOLPE PRE), 100%; in experiment [2] (post-emergence, 360 h, POST-emergence, rate 250 g/ha, visual score 15 DAA (100%=total damage, 0%=no damage), read-out: Post-emergence herbicidal activity (percentage phytotoxicity) ALOMY POST) it was 100%; in experiment [2] (pre-emergence, 480 h, PRE-emergence, rate 250 g/ha, visual score 20 DAA (100%=total damage, 0%=no damage), read-out: Pre-emergence herbicidal activity (percentage phytotoxicity) ALOMY PRE), 100%; in experiment [3] (post-emergence, 360 h, POST-emergence, rate 250 g/ha, visual score 15 DAA (100%=total damage, 0%=no damage), read-out: Post-emergence herbicidal activity (percentage phytotoxicity) AVEFA POST) it was 100%; in experiment [3] (pre-emergence, 480 h, PRE-emergence, rate 250 g/ha, visual score 20 DAA (100%=total damage, 0%=no damage), read-out: Pre-emergence herbicidal activity (percentage phytotoxicity) AVEFA PRE), 100%. Further, the pest or weed control at 250 g/ha in experiment [4] (post-emergence, 360 h, POST-emergence, rate 250 g/ha, visual score 15 DAA (100%=total damage, 0%=no damage), read-out: Post-emergence herbicidal activity (percentage phytotoxicity) ECHCG POST) was found to be 100%; in experiment [4] (pre-emergence, 480 h, PRE-emergence, rate 250 g/ha, visual score 20 DAA (100%=total damage, 0%=no damage), read-out: Pre-emergence herbicidal activity (percentage phytotoxicity) ECHCG PRE), 100%.
